Data from article PMC11261779, “Structural studies of WDR5 in complex with MBD3C WIN motif reveal a unique binding mode” (The Journal of Biological Chemistry, 2024).
No end group written: not given here.

How the values were obtained:
[1] = test system: WDR5; settings: cited from earlier work
Text: (§1) WDR5, a well-established core scaffolding protein found in histone methyltransferase complexes MLL1-4 and SET1A/B ([1], [2]), was initially characterized as an epigenetic histone “writer” to recognize histone H3 lysine 4 (H3K4) and is essential for H3K4 di- and tri-methylation (H3K4me2 and H3K4me3) to activate gene transcription ([1], [3], [4], [5], [6]). Moreover, the interaction between WDR5 and the H3 tail could be regulated by the methylation of H3 arginine 2 (H3R2) ([7], [8]). It is also present in the nonspecific lethal (NSL) complex of histone acetyltransferase, where it is responsible ...

[2] = test system: patient-derived mouse models; settings: cited from earlier work
Text: as §1

[3] = molecular target: T1, WDR5 (Mus musculus, UniProt P61965); assay: ITC of MBD3C peptides titrated into wild-type WDR5 (residues 24–334); settings: MicroCal PEAQ-ITC, 20 °C, 20 mM Tris-HCl, 200 mM NaCl, pH 7.5, WDR5 WT 44.5 μM, peptide 0.5–1.0 mM, single binding site model, triplicate, N.D. = not detectable binding
T1 construct: to titrate the truncated WDR5 construct (residues 24–334); GST (N, cleaved yes); made in house; host or cells: Escherichia coli BL21 (DE3)
Text: To validate their findings and determine the dissociation constant (Kd) between WDR5 and MBD3C40-51 more accurately, we performed ITC experiments using a synthetic MBD3C peptide spanning 40 to 51 to titrate the truncated WDR5 construct (residues 24–334).
The DNA fragment encoding the mouse WDR5 seven tandem WD-40 repeats (residues 24–334) was amplified via PCR from the human brain and bone marrow cDNA library and cloned into the pGEX-4T1 vector modified with an N-terminal GST tag and a TEV cleavage site (ENLYFQ/GSHM) (where ‘/’ indicates the cleavage site). All WDR5 mutants were generated using a MutanBEST kit and subsequently confirmed through DNA sequencing. The proteins were expressed in Escherichia coli BL21 (DE3) cells (Novagen) that were cultured in Luria–Bertani medium at 37 °C. The recombinant proteins were induced by 0.2 mM isopropyl β-D-1-thiogalactopyranoside (IPTG) upon reaching an optical density at 600 nm (OD600 nm) 0.8, then transferred to 16 °C and incubated for 18 h. Cells were harvested by centrifugation and resuspended in Buffer A (20 mM Tris-HCl, 500 mM NaCl, pH 8.0), supplemented with DNAaseI (10U) and protein protease inhibitor (Roche, 1 tablet dissolved in 1 ml sterile water), and then lysed by a high-pressure cell homogenizer. The cell debris was removed by centrifugation, and the supernatant was subjected to a 6-h incubation at 4 °C with glutathione Sepharose resins (GE Healthcare) The resins bound by GST-tagged proteins were resuspended in 20 ml Buffer A. Then, the GST tag was removed through digestion with ∼1 mg TEV protease (purified in-house) at 4 °C overnight. […]
(§2) ITC assays were performed on a Microcal PEAQ-ITC instrument (Malvern Panalytical) at 20 °C. Proteins were quantified by absorbance at 280 nm and diluted to 44.5 μM with Buffer D. The peptides were adjusted to 0.5 to 1.0 mM with the same buffer. […]

[4] = molecular target: T2, WDR5^D107R (Mus musculus, UniProt P61965, D107R); assay: ITC of MBD3C peptide titrated into WDR5 D107R mutant; settings: 20 °C, 200 mM NaCl, pH 7.5, WDR5 D107R, N.D. = not detectable binding
T2 construct: the mouse WDR5 seven tandem WD-40 repeats (residues 24–334); GST (N, cleaved yes); made in house; host or cells: Escherichia coli BL21 (DE3)
Text: To validate the importance of the aforementioned residues in the interactions between MBD3C and WDR5, we conducted mutations on Arg43, Arg45, and Phe47 residues within MBD3C and the corresponding residues within WDR5. […] In addition, MBD3C carrying R43K mutation weakens the interaction with WDR5 by ∼9.1-fold (Figs. 2D, S2, and Table 2). […] The Arg-Asp specific interaction was also observed in a previously determined WDR5-KANSL1 complex, thereby contributing to the high binding affinity of KANSL1 for WDR5 ([9]). […] In comparison to the wild-type MBD3C, the dissociation constants were approximately 4-fold and 6.8-fold higher when Phe47 was mutated to alanine and histidine (Figs. 2D, S2, and Table 2), respectively.
The DNA fragment encoding the mouse WDR5 seven tandem WD-40 repeats (residues 24–334) was amplified via PCR from the human brain and bone marrow cDNA library and cloned into the pGEX-4T1 vector modified with an N-terminal GST tag and a TEV cleavage site (ENLYFQ/GSHM) (where ‘/’ indicates the cleavage site). All WDR5 mutants were generated using a MutanBEST kit and subsequently confirmed through DNA sequencing. […]
as §2

Compound | Kd [3] | further results
Cc1ncsc1-c1ccc([C@H](C)NC(=O)[C@@H]2C[C@@H](O)CN2C(=O)[C@@H](NC(=O)CNC(=O)c2ccc(F)c(-c3ccc(N4C[C@@H](C)N(C)[C@@H](C)C4)c(NC(=O)c4c[nH]c(=O)cc4C(F)(F)F)c3)c2)C(C)(C)C)cc1 [MS67] | – | reduction of WDR5 levels in cells [1]: effectively reduced WDR5 levels; tumor growth [2]: suppressed tumor growth
GAAACRVFSPQG [MBD3C^R43A, MBD3C 40–51 peptide with R43A mutation] | no binding was observed | –
GAADCRVFSPQG [MBD3C^R43D, MBD3C 40–51 peptide with R43D mutation] | no binding was observed | –
GAAECRVFSPQG [MBD3C^R43E, MBD3C 40–51 peptide with R43E mutation] | no binding was observed | –
GAARCRVFSPQG [MBD3C] | – | Kd [4]: No interaction was observed
